Source: US6613718B2, “Aryl ether derivatives and processes for their preparation and herbicidal and desiccant compositions containing them” (Ishihara Sangyo Kaisha, Ltd., priority 2001, dated 2003)

Assays:
Assay type in all cases: in vivo
Conditions in all cases: 14 days after application
[1] = system: field corn (Zea mays L., var. Dekalb 535, CORN); experiment: Post-emerge greenhouse screening, crop safety / corn selectivity (phytotoxicity rating)
Summary of the method: (§1)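 Plants grown in sandy loam pots received acetone solutions of compound by moving-nozzle track sprayer, 15–1000 g ai/ha. In post-emergence runs the foliage was at the 2-3 leaf stage and spray contained 0.25% v/v non-ionic surfactant. Damage was assessed visually after 14 days (0-100).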

[2] = system: velvetleaf (Abutilon theophrasti, ABUTH); experiment: Pre-emerge greenhouse herbicide activity screening, phytotoxicity rating
Summary of the method: as §1

[3] = system: johnsongrass (Sorghum halepense, SORHA); experiment: as above
Summary of the method: as §1

[4] = system: common ragweed (Ambrosia artemisiifolia L., AMBEL); experiment: as above
Summary of the method: as §1

[5] = system: ivyleaf morningglory (Ipomoea hederacea, IPOHE); experiment: as above
Summary of the method: as §1

[6] = system: lambsquarters (Chenopodium album, CHEAL); experiment: as above
Summary of the method: as §1

[7] = system: sicklepod (Cassia obtusifolia, CASOB); experiment: as above
Summary of the method: as §1

[8] = system: redroot pigweed (Amaranthus retroflexus, AMARE); experiment: as above
Summary of the method: as §1

[9] = system: green foxtail (Setaria viridis, SETVI); experiment: as above
Summary of the method: as §1

[10] = system: large crabgrass (Digitaria sanguinalis, DIGSA); experiment: as above
Summary of the method: as §1

[11] = system: barnyardgrass (Echinochloa crus-galli, ECHCG); experiment: as above
Summary of the method: as §1

[12] = system: soybean (Glycine max L., var. Pella 86, SOY); experiment: Post-emerge greenhouse screening, crop safety (phytotoxicity rating)
Summary of the method: as §1

[13] = system: upland rice (Oryza sp., var.Tebonnet, RICE); experiment: as above
Summary of the method: as §1

[14] = system: soybean (Glycine max L., var. Pella 86, SOY); experiment: Pre-emerge greenhouse screening, crop safety (phytotoxicity rating)
Summary of the method: as §1

[15] = system: upland rice (Oryza sp., var.Tebonnet, RICE); experiment: as above
Summary of the method: as §1

[16] = system: field corn (Zea mays L., var. Dekalb 535, CORN); experiment: as above
Summary of the method: as §1

[17] = system: velvetleaf (Abutilon theophrasti, ABUTH); experiment: Post-emerge greenhouse herbicide activity screening, phytotoxicity rating
Summary of the method: as §1

[18] = system: johnsongrass (Sorghum halepense, SORHA); experiment: as above
Summary of the method: as §1

[19] = system: common ragweed (Ambrosia artemisiifolia L., AMBEL); experiment: as above
Summary of the method: as §1

[20] = system: ivyleaf morningglory (Ipomoea hederacea, IPOHE); experiment: as above
Summary of the method: as §1

[21] = system: lambsquarters (Chenopodium album, CHEAL); experiment: as above
Summary of the method: as §1

[22] = system: sicklepod (Cassia obtusifolia, CASOB); experiment: as above
Summary of the method: as §1

[23] = system: redroot pigweed (Amaranthus retroflexus, AMARE); experiment: as above
Summary of the method: as §1

[24] = system: green foxtail (Setaria viridis, SETVI); experiment: as above
Summary of the method: as §1

[25] = system: large crabgrass (Digitaria sanguinalis, DIGSA); experiment: as above
Summary of the method: as §1

[26] = system: barnyardgrass (Echinochloa crus-galli, ECHCG); experiment: as above
Summary of the method: as §1

Cn1c(=S)n(C)c(=O)n(-c2cc(Oc3ccccc3N)c(Cl)cc2F)c1=O [Compound 2-18]
60: ABUTH phytotoxicity rating (0-100 scale) ([2]; 250 g ai/ha) | SETVI phytotoxicity rating (0-100 scale) ([9]; 125 g ai/ha) | ECHCG phytotoxicity rating (0-100 scale) ([11]; 250 g ai/ha)
10: IPOHE phytotoxicity rating (0-100 scale) ([5]; 250 g ai/ha)
5: CORN crop damage, phytotoxicity rating (0-100 scale) ([16]; 250 g ai/ha)
100: CHEAL phytotoxicity rating (0-100 scale) ([6]; 125 g ai/ha) | CHEAL phytotoxicity rating (0-100 scale) ([6]; 250 g ai/ha) | AMARE phytotoxicity rating (0-100 scale) ([8]; 250 g ai/ha)
50: AMBEL phytotoxicity rating (0-100 scale) ([4]; 125 g ai/ha) | SETVI phytotoxicity rating (0-100 scale) ([24]; 125 g ai/ha) | SETVI phytotoxicity rating (0-100 scale) ([24]; 250 g ai/ha)
40: ABUTH phytotoxicity rating (0-100 scale) ([17]; 250 g ai/ha)
75: SORHA phytotoxicity rating (0-100 scale) ([3]; 250 g ai/ha) | DIGSA phytotoxicity rating (0-100 scale) ([10]; 125 g ai/ha)
0: CORN crop damage, phytotoxicity rating (0-100 scale) ([1]; 125 g ai/ha) | CORN crop damage, phytotoxicity rating (0-100 scale) ([1]; 250 g ai/ha) | IPOHE phytotoxicity rating (0-100 scale) ([5]; 125 g ai/ha) | SOY crop damage, phytotoxicity rating (0-100 scale) ([12]; 125 g ai/ha) | SOY crop damage, phytotoxicity rating (0-100 scale) ([12]; 250 g ai/ha) | RICE crop damage, phytotoxicity rating (0-100 scale) ([13]; 125 g ai/ha) | RICE crop damage, phytotoxicity rating (0-100 scale) ([13]; 250 g ai/ha) | SOY crop damage, phytotoxicity rating (0-100 scale) ([14]; 125 g ai/ha) | SOY crop damage, phytotoxicity rating (0-100 scale) ([14]; 250 g ai/ha) | RICE crop damage, phytotoxicity rating (0-100 scale) ([15]; 125 g ai/ha) | RICE crop damage, phytotoxicity rating (0-100 scale) ([15]; 250 g ai/ha) | CORN crop damage, phytotoxicity rating (0-100 scale) ([16]; 125 g ai/ha) | ABUTH phytotoxicity rating (0-100 scale) ([17]; 125 g ai/ha) | SORHA phytotoxicity rating (0-100 scale) ([18]; 125 g ai/ha) | SORHA phytotoxicity rating (0-100 scale) ([18]; 250 g ai/ha) | AMBEL phytotoxicity rating (0-100 scale) ([19]; 125 g ai/ha) | AMBEL phytotoxicity rating (0-100 scale) ([19]; 250 g ai/ha) | IPOHE phytotoxicity rating (0-100 scale) ([20]; 125 g ai/ha) | IPOHE phytotoxicity rating (0-100 scale) ([20]; 250 g ai/ha) | CASOB phytotoxicity rating (0-100 scale) ([22]; 125 g ai/ha) | CASOB phytotoxicity rating (0-100 scale) ([22]; 250 g ai/ha) | DIGSA phytotoxicity rating (0-100 scale) ([25]; 125 g ai/ha) | DIGSA phytotoxicity rating (0-100 scale) ([25]; 250 g ai/ha) | ECHCG phytotoxicity rating (0-100 scale) ([26]; 125 g ai/ha)
99: AMARE phytotoxicity rating (0-100 scale) ([8]; 125 g ai/ha)
80: DIGSA phytotoxicity rating (0-100 scale) ([10]; 250 g ai/ha) | AMARE phytotoxicity rating (0-100 scale) ([23]; 125 g ai/ha) | AMARE phytotoxicity rating (0-100 scale) ([23]; 250 g ai/ha)
70: CHEAL phytotoxicity rating (0-100 scale) ([21]; 125 g ai/ha) | CHEAL phytotoxicity rating (0-100 scale) ([21]; 250 g ai/ha)
55: ABUTH phytotoxicity rating (0-100 scale) ([2]; 125 g ai/ha) | AMBEL phytotoxicity rating (0-100 scale) ([4]; 250 g ai/ha)
35: SORHA phytotoxicity rating (0-100 scale) ([3]; 125 g ai/ha) | CASOB phytotoxicity rating (0-100 scale) ([7]; 250 g ai/ha) | ECHCG phytotoxicity rating (0-100 scale) ([11]; 125 g ai/ha) | ECHCG phytotoxicity rating (0-100 scale) ([26]; 250 g ai/ha)
20: CASOB phytotoxicity rating (0-100 scale) ([7]; 125 g ai/ha)
95: SETVI phytotoxicity rating (0-100 scale) ([9]; 250 g ai/ha)

Cn1nc(-c2cc(Oc3ncccn3)c(Cl)cc2F)c(=O)n(C)c1=S [Compound 4-1, 6-[4-Chloro-2-fluoro-5-(2-pyrimidinyloxy)phenyl]-3,4-dihydro-2,4-dimethyl-3-thioxo-1,2,4-triazin-5(2H)-one]
75: IPOHE phytotoxicity rating (0-100 scale) ([5]; 125 g ai/ha) | SORHA phytotoxicity rating (0-100 scale) ([18]; 250 g ai/ha) | ECHCG phytotoxicity rating (0-100 scale) ([26]; 250 g ai/ha)
95: ABUTH phytotoxicity rating (0-100 scale) ([2]; 250 g ai/ha)
99: SORHA phytotoxicity rating (0-100 scale) ([3]; 125 g ai/ha) | DIGSA phytotoxicity rating (0-100 scale) ([10]; 125 g ai/ha) | ECHCG phytotoxicity rating (0-100 scale) ([11]; 250 g ai/ha) | ABUTH phytotoxicity rating (0-100 scale) ([17]; 125 g ai/ha) | CHEAL phytotoxicity rating (0-100 scale) ([21]; 125 g ai/ha)
85: AMBEL phytotoxicity rating (0-100 scale) ([4]; 125 g ai/ha) | AMBEL phytotoxicity rating (0-100 scale) ([4]; 250 g ai/ha)
90: ECHCG phytotoxicity rating (0-100 scale) ([11]; 125 g ai/ha)
10: CORN crop damage, phytotoxicity rating (0-100 scale) ([16]; 250 g ai/ha)
70: IPOHE phytotoxicity rating (0-100 scale) ([20]; 125 g ai/ha) | IPOHE phytotoxicity rating (0-100 scale) ([20]; 250 g ai/ha)
15: CORN crop damage, phytotoxicity rating (0-100 scale) ([1]; 250 g ai/ha) | RICE crop damage, phytotoxicity rating (0-100 scale) ([13]; 250 g ai/ha)
60: CASOB phytotoxicity rating (0-100 scale) ([7]; 250 g ai/ha) | RICE crop damage, phytotoxicity rating (0-100 scale) ([15]; 250 g ai/ha) | AMBEL phytotoxicity rating (0-100 scale) ([19]; 250 g ai/ha) | SETVI phytotoxicity rating (0-100 scale) ([24]; 250 g ai/ha) | DIGSA phytotoxicity rating (0-100 scale) ([25]; 250 g ai/ha)
55: CASOB phytotoxicity rating (0-100 scale) ([22]; 125 g ai/ha) | CASOB phytotoxicity rating (0-100 scale) ([22]; 250 g ai/ha) | ECHCG phytotoxicity rating (0-100 scale) ([26]; 125 g ai/ha)
5: CORN crop damage, phytotoxicity rating (0-100 scale) ([1]; 125 g ai/ha)
30: AMBEL phytotoxicity rating (0-100 scale) ([19]; 125 g ai/ha)
0: RICE crop damage, phytotoxicity rating (0-100 scale) ([13]; 125 g ai/ha) | SOY crop damage, phytotoxicity rating (0-100 scale) ([14]; 125 g ai/ha) | SOY crop damage, phytotoxicity rating (0-100 scale) ([14]; 250 g ai/ha) | CORN crop damage, phytotoxicity rating (0-100 scale) ([16]; 125 g ai/ha)
65: ABUTH phytotoxicity rating (0-100 scale) ([2]; 125 g ai/ha)
100: SORHA phytotoxicity rating (0-100 scale) ([3]; 250 g ai/ha) | IPOHE phytotoxicity rating (0-100 scale) ([5]; 250 g ai/ha) | CHEAL phytotoxicity rating (0-100 scale) ([6]; 125 g ai/ha) | CHEAL phytotoxicity rating (0-100 scale) ([6]; 250 g ai/ha) | AMARE phytotoxicity rating (0-100 scale) ([8]; 125 g ai/ha) | AMARE phytotoxicity rating (0-100 scale) ([8]; 250 g ai/ha) | SETVI phytotoxicity rating (0-100 scale) ([9]; 125 g ai/ha) | SETVI phytotoxicity rating (0-100 scale) ([9]; 250 g ai/ha) | DIGSA phytotoxicity rating (0-100 scale) ([10]; 250 g ai/ha) | ABUTH phytotoxicity rating (0-100 scale) ([17]; 250 g ai/ha) | CHEAL phytotoxicity rating (0-100 scale) ([21]; 250 g ai/ha) | AMARE phytotoxicity rating (0-100 scale) ([23]; 125 g ai/ha) | AMARE phytotoxicity rating (0-100 scale) ([23]; 250 g ai/ha)
50: CASOB phytotoxicity rating (0-100 scale) ([7]; 125 g ai/ha) | SOY crop damage, phytotoxicity rating (0-100 scale) ([12]; 125 g ai/ha) | SOY crop damage, phytotoxicity rating (0-100 scale) ([12]; 250 g ai/ha) | RICE crop damage, phytotoxicity rating (0-100 scale) ([15]; 125 g ai/ha) | SORHA phytotoxicity rating (0-100 scale) ([18]; 125 g ai/ha) | SETVI phytotoxicity rating (0-100 scale) ([24]; 125 g ai/ha) | DIGSA phytotoxicity rating (0-100 scale) ([25]; 125 g ai/ha)
